Measured values taken from ChEMBL document CHEMBL1201862, “PubChem BioAssay data set” (2004).
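Interpolation was linear, between the two tested concentrations surrounding the appropriate level; five concentrations were tested over 48 hours in 96-well plates. GI50 marks 50% less growth.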 Calls of active or inactive are those of the source. No stated cut-off is given here; in the data, active = GI50 up to about 1.1 µM and inactive = higher.

Key:
Assay in all cases: NCI-60 cell line screen, 48 h
[1] = system: SR
[2] = system: HCT-15
[3] = system: A498
[4] = system: HOP-92
[5] = system: RXF 393
[6] = system: 786-0
[7] = system: Hs-578T
[8] = system: PC-3
[9] = system: COLO 205
[10] = system: UACC-257
[11] = system: SNB-19
[12] = system: IGROV-1
[13] = system: EKVX
[14] = system: HOP-62
[15] = system: BT-549
[16] = system: T47D
[17] = system: NCI-H522
[18] = system: U-251
[19] = system: CCRF-CEM
[20] = system: UO-31

Measured: GI50

COC1(CC[C@H](C)COC2OC(CO)C(O)C(O)C2O)O[C@H]2C[C@H]3[C@@H]4CC=C5C[C@@H](OC6OC(CO)C(O)C(OC7OC(CO)C(O)C(O)C7O)C6OC6OC(C)C(O)C(O)C6O)CC[C@]5(C)[C@H]4CC[C@]3(C)[C@H]2[C@@H]1C (stereo not given in full)
2.96 µM: [2]
inactive: [1] > 100 µM | [3] 17.8 µM | [4] 3.37 µM | [5] 4.24 µM | [6] 2.32 µM | [7] 11 µM | [8] 4.3 µM | [9] 4.08 µM | [10] 5.73 µM | [11] 7.31 µM | [12] 3.73 µM | [13] 15.9 µM | [14] 5.51 µM | [15] 7.6 µM | [16] 2.61 µM | [17] 2.94 µM | [18] 2.12 µM | [19] 3.17 µM | [20] 2.14 µM

CCOc1c2ccsc2c(OCC)c2ccsc12
4.06 µM: [2]
inactive: [1] 4.32 µM | [3] 7.03 µM | [4] 2.57 µM | [5] 3.59 µM | [6] 4.44 µM | [7] 4.21 µM | [8] 3.94 µM | [9] 4.21 µM | [10] > 29.1 µM | [11] 4.37 µM | [12] 5.06 µM | [13] > 29.6 µM | [14] 4.78 µM | [15] > 28.8 µM | [16] 3.94 µM | [17] 3.27 µM | [18] 3.72 µM | [19] 3.77 µM | [20] 9.02 µM

CC(=O)N1NC(c2ccccc2)=NC(=O)C1c1cc(C)c(O)c(C)c1 (stereo not given)
inactive: [1] 49.3 µM | [3] 28.3 µM | [4] 19.8 µM | [5] 17.5 µM | [6] 17.3 µM | [7] 29.8 µM | [8] 27.8 µM | [9] > 100 µM | [10] 31.2 µM | [11] 21.2 µM | [12] 26.9 µM | [13] 34 µM | [14] 16.2 µM | [15] 23 µM | [16] 22.4 µM | [17] 17.8 µM | [18] 19.2 µM | [19] > 100 µM | [20] 21.7 µM
40 µM: [2]

COC(=O)/C=C1\C(=O)N(C(C)=O)c2ccccc21
active: [3] 0.0371 µM
6.19 µM: [2]
inactive: [1] 2.52 µM | [4] 2.04 µM | [5] 6.04 µM | [6] 4.9 µM | [7] 4.17 µM | [8] 13.8 µM | [9] 12.2 µM | [10] 7.38 µM | [11] 18 µM | [12] 7.87 µM | [13] 12.3 µM | [14] 12.9 µM | [15] 3.47 µM | [16] 8.39 µM | [17] 3.35 µM | [18] 12.8 µM | [19] 2.97 µM | [20] 12.9 µM

N=C(N)NC1C(O)C(O)C(O)C(NC(=N)N)C1O (stereo not given)
> 100 µM: [2]
inactive: [1] > 100 µM | [3] > 100 µM | [4] > 100 µM | [5] > 100 µM | [6] > 100 µM | [7] > 100 µM | [8] > 100 µM | [9] > 100 µM | [10] > 100 µM | [11] > 100 µM | [12] > 100 µM | [13] > 100 µM | [14] > 100 µM | [15] > 100 µM | [16] > 100 µM | [17] > 100 µM | [18] > 100 µM | [19] > 100 µM | [20] > 100 µM

CC1=NN(c2nc(N)nc(/C(C#N)=C/c3ccccc3O)n2)C(C)(C)C1
inactive: [1] 35.9 µM | [3] 24.7 µM | [4] 20.1 µM | [5] 20.2 µM | [6] 15.7 µM | [7] 16.3 µM | [8] 16 µM | [9] 17.4 µM | [10] 18.9 µM | [11] 25.5 µM | [12] 23.1 µM | [13] 16 µM | [14] 20.5 µM | [15] 36.2 µM | [16] 15.7 µM | [17] 19.8 µM | [18] 18.4 µM | [19] 18 µM | [20] 18.8 µM
19.4 µM: [2]

O=C1CCSC(=S)N1c1ccc(Br)c(Cl)c1
inactive: [1] 32 µM | [3] 22.2 µM | [4] 25.4 µM | [5] 20.1 µM | [6] 24.4 µM | [7] 39 µM | [8] 34.5 µM | [9] 20.2 µM | [10] 19.9 µM | [11] 23.7 µM | [12] 24.8 µM | [13] 44.8 µM | [14] 31.9 µM | [15] 21.1 µM | [16] 14.9 µM | [17] 21 µM | [18] 27.1 µM | [19] 60.5 µM | [20] 30.2 µM
20.4 µM: [2]

COC(=O)C12C3C4(C(=O)OC)C1C1(C(=O)OC)C2C3(C(=O)OC)C41C(=O)N(C(C)C)C(C)C (stereo not given)
inactive: [1] > 100 µM | [3] > 100 µM | [4] > 100 µM | [5] > 100 µM | [6] > 100 µM | [7] > 100 µM | [8] > 100 µM | [9] > 100 µM | [10] > 100 µM | [11] > 100 µM | [12] > 100 µM | [13] > 100 µM | [14] > 100 µM | [15] > 100 µM | [16] > 100 µM | [17] > 100 µM | [18] > 100 µM | [19] > 100 µM | [20] > 100 µM
> 100 µM: [2]

CC(C)(C)OC(=O)NCC(CNC(=O)OC(C)(C)C)C(N)=O
inactive: [1] > 100 µM | [3] > 100 µM | [4] > 100 µM | [5] > 100 µM | [6] > 100 µM | [7] > 100 µM | [8] > 100 µM | [9] > 100 µM | [10] > 100 µM | [11] > 100 µM | [12] > 100 µM | [13] > 100 µM | [14] > 100 µM | [15] > 100 µM | [16] > 100 µM | [17] > 100 µM | [18] > 100 µM | [19] > 100 µM | [20] > 100 µM
> 100 µM: [2]

CC(=O)NC1=C(C)C(=O)c2c(nc3n2CCC3OC(=O)c2ccccc2)C1=N (stereo not given)
2.72 µM: [2]
active: [15] 0.689 µM
inactive: [1] 2.29 µM | [3] 1.96 µM | [4] 2.15 µM | [5] 1.29 µM | [6] 1.93 µM | [7] 2.06 µM | [8] 1.32 µM | [9] 1.38 µM | [10] 1.24 µM | [11] 3.48 µM | [12] 1.74 µM | [13] 2.55 µM | [14] 3.09 µM | [16] 1.85 µM | [17] 3.83 µM | [18] 3.22 µM | [19] 1.58 µM | [20] 2.04 µM
